Patent publication US5118681A (priority 1989, dated 1992)
≈ marks a conversion by molar mass, not a printed value. Like-named read-outs stand apart in the source and are kept apart here.

Assays:
[1] = test system: Phytophthora infestans; experiment: whole plant or invertebrate; assay type: in vivo; conditions: Phytophthora infestans, in Solanum lycopersicum, 96 h, read-out: % control TLB
[2] = test system: Pellicularia filamentosa (f. sp. sasiki); experiment: whole plant or invertebrate; assay type: in vivo; conditions: 120 h; read-out: % control RSB
[3] = test system: A.n; experiment: Minimum Inhibitory Concentration Test, alternate (Table 4), A.n; assay type: cell-based, Aspergillus niger; conditions: Aspergillus niger, TSB, 72 hours
Experimental: (§1) A 125 μl aliquot of 10,000 ppm test compound in acetone was added to 4.88 ml of TSB to provide a 250 ppm solution. From this solution, 100 μL was transferred to the first row of two microtiter plate columns. Both replicates and five additional compounds were all serially diluted 1:1 to a final concentration of 0.8 ppm in TSB.
(§2) Inoculation was accomplished by diluting a 24 hr Ps fl culture, four mls per 36 mls of phosphate buffer solution. A Dynatech autoinoculator was used to transfer 1.5 μl of this cell suspension to the microtiter plates. The plates were incubated at 30° C. for 3 days before the lowest concentration at which no growth occurs was recorded in the database. The SOK data and MIC test data on Ps.fl, Ps.ae, E.c, and S.a. bacteria and Candida albicans (C.alb), A.n and A.p fungi are listed in Table 4.

[4] = test system: Erysiphe graminis (f. sp. tritici); experiment: whole plant or invertebrate; assay type: in vivo; conditions: Blumeria graminis; read-out: % control WPM
[5] = test system: Pseudoperonospora cubensis; experiment: whole plant or invertebrate; assay type: in vivo; conditions: Pseudoperonospora cubensis, in Cucumis sativus, 168 h; read-out: % control CDM
[6] = test system: Puccinia recondita (f. sp. tritici Races PKB and PLD); experiment: whole plant or invertebrate; assay type: in vivo
[7] = test system: Pseudomonas fluorescens; experiment: Minimum Inhibitory Concentration Test, alternate (Table 4), Ps.fl; assay type: cell-based; conditions: Pseudomonas fluorescens, TSB, 72 hours, 30° C
Experimental: as §1, §2

[8] = test system: Piricularia oryzae; experiment: whole plant or invertebrate; assay type: in vivo; conditions: Pyricularia oryzae, read-out: % control RB
[9] = Puccinia recondita, 240 h; read-out: % control WLR

CCCCCCCCCCNC(=O)C(S/C=C\C(=O)NCCCCCCCC)C(=O)OCC (stereo not drawn) [Example 26, N-n-octyl-cis-3-[2-(ethyl-N-n-decylmalonamido)thio]acrylamide]
pest or weed control at 200 ppm [1]: 80%
pest or weed control at 200 ppm [2]: 0%
MIC [3]: > 500 mg/L
pest or weed control at 200 ppm [4]: 50%
pest or weed control at 200 ppm [5]: 100%
pest or weed control at 200 ppm [6, 9]: 75%
MIC [7]: > 500 mg/L
pest or weed control at 200 ppm [8]: 50%

CCCCCCCCNC(=O)/C=C\SC(C(C)=O)C(=O)Nc1ccccc1 (stereo not drawn) [Example 31, N-n-octyl-cis-3-[2-(N-phenylacetoacetamido)thio]acrylamide]
pest or weed control at 200 ppm [1]: 95%
pest or weed control at 200 ppm [2]: 0%
MIC [3]: 250 mg/L (≈ 640 µM)
pest or weed control at 200 ppm [4]: 0%
pest or weed control at 200 ppm [5]: 100%
pest or weed control at 200 ppm [6, 9]: 50%
MIC [7]: 500 mg/L (≈ 1280 µM)
pest or weed control at 200 ppm [8]: 95%

CCCCCCCCNC(=O)/C=C\SC(C(=O)NCc1cccc(OC)c1)C(=O)OCC (stereo not drawn) [Example 32, N-n-octyl-cis-3-{2-[ethyl-N-(3-methoxybenzyl)malonamido]thio}acrylamide]
pest or weed control at 200 ppm [1]: 100%
pest or weed control at 200 ppm [2]: 0%
MIC [3]: 500 mg/L (≈ 1080 µM)
pest or weed control at 200 ppm [4]: 0%
pest or weed control at 200 ppm [5]: 99%
pest or weed control at 200 ppm [6, 9]: 75%
MIC [7]: > 500 mg/L
pest or weed control at 200 ppm [8]: 95%

CCCCCCCCNC(=O)/C=C\SC(C(=O)NCc1ccc(C)cc1)C(=O)OCC (stereo not drawn) [Example 33, N-n-octyl-cis-3-{2-[ethyl-N-(4-methylbenzyl)malonamido]thio}acrylamide]
pest or weed control at 200 ppm [1]: 95%
pest or weed control at 200 ppm [2]: 0%
MIC [3]: 250 to 500 mg/L (≈ 557 to 1110 µM)
pest or weed control at 200 ppm [4]: 0%
pest or weed control at 200 ppm [5]: 99%
pest or weed control at 200 ppm [6, 9]: 0%
MIC [7]: > 500 mg/L
pest or weed control at 200 ppm [8]: 90%

CCCCCCCCNC(=O)/C=C\SC(C(=O)Nc1ccc(Cl)cc1)C(=O)OCC (stereo not drawn) [Example 34, N-n-octyl-cis-3-{2-[ethyl-N-(4-chlorophenyl)malonamido]thio}acrylamide]
pest or weed control at 100 ppm [1]: 50%
pest or weed control at 100 ppm [2]: 0%
MIC [3]: > 500 mg/L
pest or weed control at 100 ppm [4]: 50%
pest or weed control at 100 ppm [5]: 85%
pest or weed control at 100 ppm [6, 9]: 50%
MIC [7]: > 500 mg/L
pest or weed control at 100 ppm [8]: 0%

CCCCCCCCNC(=O)/C=C\SC(C(=O)NCc1ccccc1Cl)C(=O)OCC (stereo not drawn) [Example 38, N-n-octyl-cis-3-{2-[ethyl-N-(2-chlorobenzyl)malonamido]thio}acrylamide]
pest or weed control at 100 ppm [1]: 95%
pest or weed control at 100 ppm [2]: 0%
MIC [3]: 125 to 250 mg/L (≈ 266 to 533 µM)
pest or weed control at 100 ppm [4]: 0%
pest or weed control at 100 ppm [5]: 99%
pest or weed control at 100 ppm [6, 9]: 0%
MIC [7]: > 500 mg/L
pest or weed control at 100 ppm [8]: 50%

CCCCCCCCNC(=O)/C=C\SC(C(=O)Nc1cccc(Cl)c1C)C(=O)OCC (stereo not drawn) [Example 39, N-n-octyl-cis-3-{2-[ethyl-N-(2-methyl-3-chlorophenyl)malonamido]thio}acrylamide]
pest or weed control at 100 ppm [1]: 100%
pest or weed control at 100 ppm [2]: 0%
MIC [3]: 500 mg/L (≈ 1070 µM)
pest or weed control at 100 ppm [4]: 50%
pest or weed control at 100 ppm [5]: 100%
pest or weed control at 100 ppm [6, 9]: 75%
MIC [7]: > 500 mg/L
pest or weed control at 100 ppm [8]: 50%

CCCCCCCCNC(=O)/C=C\SC(C(=O)NCc1cccc(C)c1)C(=O)OCC (stereo not drawn) [Example 40, N-n-octyl-cis-3-{2-[ethyl-N-(3-methylbenzyl)malonamido]thio}acrylamide]
pest or weed control at 100 ppm [1]: 100%
pest or weed control at 100 ppm [2]: 0%
MIC [3]: 125 to 250 mg/L (≈ 279 to 557 µM)
pest or weed control at 100 ppm [4]: 0%
pest or weed control at 100 ppm [5]: 99%
pest or weed control at 100 ppm ([6]; Puccinia recondita, 240 h, read-out: % control WLR): 75%
MIC [7]: > 500 mg/L
pest or weed control at 100 ppm [8]: 50%

CCCCCCCCNC(=O)/C=C\SC(C(=O)Nc1ccc(Cl)c(Cl)c1)C(=O)OCC (stereo not drawn) [Example 52, N-n-octyl-cis-3-{2-[ethyl-N-(3,4-dichlorophenyl)malonamido]thio}acrylamide]
pest or weed control at 100 ppm [1]: 80%
pest or weed control at 100 ppm [2]: 0%
MIC [3]: > 500 mg/L
pest or weed control at 100 ppm [4]: 0%
pest or weed control at 100 ppm [5]: 99%
pest or weed control at 100 ppm [6, 9]: 0%
MIC [7]: > 500 mg/L
pest or weed control at 100 ppm [8]: 80%

CCCCCCCCNC(=O)/C=C\SC(C(=O)Nc1cc(Cl)cc(Cl)c1)C(=O)OCC (stereo not drawn) [Example 55, N-n-octyl-cis-3-{2-[ethyl-N-(3,5-dichlorophenyl)malonamido]thio}acrylamide]
pest or weed control at 100 ppm [1]: 80%
pest or weed control at 100 ppm [2]: 0%
MIC [3]: > 500 mg/L
pest or weed control at 100 ppm [4]: 50%
pest or weed control at 100 ppm [5]: 85%
pest or weed control at 100 ppm [6, 9]: 0%
MIC [7]: > 500 mg/L
pest or weed control at 100 ppm [8]: 95%

CCCCCCCCNC(=O)/C=C\SC(C(=O)NCc1ccccc1OC)C(=O)OCC (stereo not drawn) [Example 56, N-n-octyl-cis-3-{2-[ethyl-N-(2-methoxybenzyl)malonamido]thio}acrylamide]
pest or weed control at 100 ppm [1]: 80%
pest or weed control at 100 ppm [2]: 0%
MIC [3]: 250 mg/L (≈ 538 µM)
pest or weed control at 100 ppm [4]: 0%
pest or weed control at 100 ppm [5]: 100%
pest or weed control at 100 ppm [6, 9]: 0%
MIC [7]: > 500 mg/L
pest or weed control at 100 ppm [8]: 90%

CCCCCCCCNC(=O)/C=C\SC(C(C)=O)C(=O)Nc1ccccc1C (stereo not drawn) [Example 57, N-n-octyl-cis-3-{2-[N-(2-methylphenyl)acetoacetamido]thio}acrylamide]
pest or weed control at 100 ppm [1]: 0%
pest or weed control at 100 ppm [2]: 100%
MIC [3]: 250 mg/L (≈ 618 µM)
pest or weed control at 100 ppm [4]: 50%
pest or weed control at 100 ppm [5]: 0%
pest or weed control at 100 ppm [6, 9]: 0%
MIC [7]: > 500 mg/L
pest or weed control at 100 ppm [8]: 80%

CCCCCCCCNC(=O)/C=C\SC(C(=O)Nc1ccc(OC)cc1)C(=O)OCC (stereo not drawn) [Example 58, N-n-octyl-cis-3-{2-[ethyl-N-(4-methoxyphenyl)malonamido]thio}acrylamide]
pest or weed control at 100 ppm [1]: 0%
pest or weed control at 100 ppm [2]: 0%
MIC [3]: 250 mg/L (≈ 555 µM)
pest or weed control at 100 ppm [4]: 0%
pest or weed control at 100 ppm [5]: 100%
pest or weed control at 100 ppm [6, 9]: 0%
MIC [7]: > 500 mg/L
pest or weed control at 100 ppm [8]: 0%

CCCCCCCCNC(=O)/C=C\SC(C(=O)Nc1c(C)cccc1Cl)C(=O)OCC (stereo not drawn) [Example 59, N-n-octyl-cis-3-{2-[ethyl-N-(2-chloro-6-methylphenyl)malonamido]thio}acrylamide]
pest or weed control at 100 ppm [1]: 95%
pest or weed control at 100 ppm [2]: 0%
MIC [3]: 250 mg/L (≈ 533 µM)
pest or weed control at 100 ppm [4]: 0%
pest or weed control at 100 ppm [5]: 99%
pest or weed control at 100 ppm [6, 9]: 50%
MIC [7]: > 250 mg/L
pest or weed control at 100 ppm [8]: 50%

CCCCCCCCNC(=O)/C=C\SC(C(=O)NCc1ccc(OC)cc1)C(=O)OCC (stereo not drawn) [Example 60, N-n-octyl-cis-3-{2-[ethyl-N-(4-methoxybenzyl)malonamido]thio}acrylamide]
pest or weed control at 100 ppm [1]: 80%
pest or weed control at 100 ppm [2]: 0%
MIC [3]: > 250 mg/L
pest or weed control at 100 ppm [4]: 0%
pest or weed control at 100 ppm [5]: 99%
pest or weed control at 100 ppm [6, 9]: 0%
MIC [7]: > 250 mg/L
pest or weed control at 100 ppm [8]: 0%

CCCCCCCCNC(=O)/C=C\SC(C(=O)Nc1ncccn1)C(=O)OCC (stereo not drawn) [Example 62, N-n-octyl-cis-3-{2-[ethyl-N-(2-pyrimidinyl)malonamido]thio}acrylamide]
pest or weed control at 100 ppm [1]: 0%
pest or weed control at 100 ppm [2]: 0%
MIC [3]: > 250 mg/L
pest or weed control at 100 ppm [4]: 0%
pest or weed control at 100 ppm [5]: 85%
pest or weed control at 100 ppm [6, 9]: 0%
MIC [7]: > 250 mg/L
pest or weed control at 100 ppm [8]: 0%

CCCCCCCCNC(=O)/C=C\SC(C(=O)NCc1ccc([N+](=O)[O-])cc1)C(=O)OCC (stereo not drawn) [Example 64, N-n-octyl-cis-3-{2-[ethyl-N-(4-nitrobenzyl)malonamido]thio}acrylamide]
pest or weed control at 100 ppm [1]: 0%
pest or weed control at 100 ppm [2]: 0%
MIC [3]: > 250 mg/L
pest or weed control at 100 ppm [4]: 50%
pest or weed control at 100 ppm [5]: 100%
pest or weed control at 100 ppm [6, 9]: 50%
MIC [7]: > 250 mg/L
pest or weed control at 100 ppm [8]: 0%

CCCCCCCCNC(=O)/C=C\SC(C(=O)NCc1cccc([N+](=O)[O-])c1)C(=O)OCC (stereo not drawn) [Example 65, N-n-octyl-cis-3-{2-[ethyl-N-(3-nitrobenzyl)malonamido]thio}acrylamide]
pest or weed control at 100 ppm [1]: 80%
pest or weed control at 100 ppm [2]: 0%
MIC [3]: > 250 mg/L
pest or weed control at 100 ppm [4]: 0%
pest or weed control at 100 ppm [5]: 100%
pest or weed control at 100 ppm [6, 9]: 50%
MIC [7]: > 250 mg/L
pest or weed control at 100 ppm [8]: 0%
